# Source: patent US6846845B2, “Heat shock protein inducer” (Eisai Co., Ltd., priority 2002, dated 2005)
# Tests used:
# HSP70 = assay: Effect of chelerythrine pretreatment on GGA-induced HSP70 expression in the heart (Western immunoblotting), Example 2; type: in vivo, rat; details: 24 h after GGA 200 mg/kg oral or vehicle; chelerythrine 5 mg/kg i.v. pretreatment, FIG. 8
# Procedure: Male Sprague-Dawley rats (220-250 g) were used. GGA, as an emulsion with 5% gum arabic and 0.008% tocopherol, was given orally at a dose of 200 mg/kg. Rats were classified into 4 groups. FIG. 7 is a diagrammatic representation of experimental protocol. […] Twenty-four hours after oral administration of GGA or vehicle, rats were anesthetized (sodium pentobarbital, 50 mg/kg IP) and heparinized (500 IU/kg IP). Hearts were excised, immediately frozen in liquid nitrogen, and stored at −70° C. until use for Western blot analysis (n=4 for each group). […]
# To analyze the expression of HSP70, the frozen heart samples were homogenized with SDS sample buffer (pH 6.8, 20% glycerol, 6% SDS, 0.12M Tris), centrifuged and boiled (Maloyan A, Palmon A, Horowitz M. Heat acclimation increases the basal HSP70 level and alters its production dynamics during heat stress. Am J Physiol. 1999; 276:R1506-R1515.). […] The total protein concentration of heart was quantified by the Bradford method (Bradford MM. A rapid and sensitive method for quantitation of microgram quantities of protein utilizing the principle of protein-dye binding. Anal. Biochem. 1976;72:248-254). […] The proteins were detected by ECL with exposure to Hyperfilm (Amersham Pharmacia). The amount of protein on the immunoblots was quantified using National Institutes of Health image software. […]
# isolated perfused heart = assay: Isolated perfused heart experiments (Langendorff, 20 min no-flow global ischemia, 30 min reperfusion), Example 2; type: in vivo, rat
# Procedure: Male Sprague-Dawley rats (220-250 g) were used. GGA, as an emulsion with 5% gum arabic and 0.008% tocopherol, was given orally at a dose of 200 mg/kg. Rats were classified into 4 groups. FIG. 7 is a diagrammatic representation of experimental protocol. […] Twenty-four hours after oral administration of GGA or vehicle, rats were anesthetized (sodium pentobarbital, 50 mg/kg IP) and heparinized (500 IU/kg IP). Hearts were excised, immediately frozen in liquid nitrogen, and stored at −70° C. until use for Western blot analysis (n=4 for each group). To examine the cardiac function during ischemia and reperfusion, hearts of each group were prepared for isolated perfused experiments using Langendorff apparatus (n=7-9 for each group, FIG. 7).
# Twenty-four hours after administration-of 200 mg/kg of GGA or vehicle, rats of 4 groups were heparinized (500 IU/kg, IP) and anesthetized with sodium pentobarbital (50 mg/kg, IP). Each heart was isolated and perfused retrogradely using the Langendorff method with Krebs-Henseleit buffer (pH 7.4, [in mM] 118 NaCl, 4.7 KCl, 2.5 CaCl2, 1.2 MgSO4, 1.2 KH2PO4, 25.0 Na2HCO3, 11.0 glucose) equilibrated with 95% O2-5% CO2 gas mixture at 36.5° C. at a constant pressure of 75 mm Hg. A water-filled latex balloon was inserted through the mitral orifice into the left ventricle (LV) and the LV end-diastolic pressure (LVEDP) was adjusted to 0-5 mm Hg. During the initial 10 min of constant pressure perfusion, the perfusion flow rate was determined for each heart, which was then perfused at a determined perfusion rate using a microtube pump while the heart was covered with water-jacketed glassware and the relative humidity maintained at 90% or more. Normothermic no-flow global ischemia was initiated for 20 min, followed by reperfusion for 30 min. The coronary effluent during the 30 min of reperfusion period was collected for measurement of creatine kinase content (released CK).
# LV pressure was monitored using a pressure transducer to obtain the peak positive and negative first derivatives of LV pressure (dP/dtmax and dP/dtmin). […] Coronary perfusion pressure (CPP) was defined as the hydraulic pressure measured at the level of aortic cannulation. LV pressure, CPP and electrocardiogram were continuously recorded on a polygraph recorder (WS-681G, Nihon Kohden) and stored on a PCM data recorder (RD-111T, TEAC) for later analysis.
# Data are expressed as mean ±SEM. Serial changes in LVDP, LVEDP, CPP, and dP/dt were analyzed by two-way analysis of variance (ANOVA) followed by the Bonferroni/Dunn test, unless otherwise specified. Comparisons among groups with respect to the hemodynamic parameters at baseline and the ratio of released CK to ventricular weight were analyzed by one-way ANOVA followed by the Bonferroni/Dunn test. […]
structure (smiles),measurement,setting,value
"CC(=O)CCC=C(C)CCC=C(C)CCC=C(C)CCC=C(C)C [GGA, 6, 10, 14, 18-tetramethyl-5,9, 13, 17-nonadecatetraen-2-one]",HSP70 expression in the heart (relative density to control group),HSP70,increased
same,released creatine kinase (CK) relative to ventricular weight,"isolated perfused heart; 30-min reperfusion period after 20 min ischemia, FIG. 12",lower
same,"recovery of LVDP, LVEDP and dP/dt on reperfusion versus CNT group","isolated perfused heart; 20 min no-flow global ischemia, 30 min reperfusion, FIG. 11",greater
